Data: patent US20070238725A1, “Therapeutic combinations for the treatment or prevention of psychotic disorders” (Wyeth, priority 2006, published 2007)
Where two headings read alike, the source gives them in different places.

Tests used:
[1] = tested on: apomorphine-induced climbing; test: Apomorphine-induced climbing in mice; assay type: in vivo; conditions: for block of apomorphine-induced climbing: versus either compound alone; for ED50: Mus musculus, read-out: ED50 for apomorphine block; for dose for increased efficacy with co-administration: co-administration with haloperidol
Protocol: (Compound 2, “cpd 2”) to exemplify, the present Example describes four experiments in which a compound of formula I, was administered in combination with either a typical (exemplified by haloperidol) or atypical (exemplified by clozapine). The combination reduced apomorphine-induced climbing without side effects.
(§1) Mice were acclimated to the climbing cages for at least 1 hour and then dosed with either the vehicle or a dose of haloperidol or clozapine followed by a dose of either vehicle or a dose of Compound 1. Thirty minutes after dosing all mice received 1 mg/kg, s.c. apomorphine and returned to the climbing cages. Five minutes after apomorphine the mice were observed and scored for climbing and stereotypy every 5 minutes for the 30 minute test session.

[2] = tested on: haloperidol induced catalepsy; test: Catalepsy (bar test), extra-pyramidal side effect liability; assay type: in vivo, mice; conditions: for dose for increased EPS liability with co-administration: co-administration with haloperidol, mice
Protocol: (Compound 2, “cpd 2”) to exemplify, the present Example describes an experiment in which a compound of formula I was administered in combination with haloperidol to assess extra-pyramidal side effect liability, as represented by cataleptic behavior. [table] [table] [table] Mice were dosed with either the vehicle or a dose of haloperidol followed by a dose of either vehicle or a dose of Compound 1 or Compound 2. Thirty, 60, 90 and 120 minutes after dosing, the forelegs are draped over a thin horizontal rod 1.75″ high. The number of seconds up to 60 sec for which the mouse remains on the bar is recorded at each test point and presented as the percent of maximum possible response (60 sec).

[3] = tested on: conditioned avoidance responding; test: Conditioned avoidance responding; assay type: in vivo; conditions: rats
Protocol: (Compound 2, “cpd 2”) to exemplify, the present Example describes an experiment to determine the effect of co-administration of haloperidol (0.54 mg/kg, i.p. 30′ pretreatment) or clozapine (5.4 mg/kg, i.p., 30′ pretreatment) and compound 1 (0.54 mg/kg, i.p., 30′ pretreatment) or compound 2 (1 mg/kg, i.p. 30′ pretreatment) on conditioned avoidance responding.
Male rats had been trained to a stable criterion performance of 90% avoidance responding and had been used in previous drug studies. The dosing plan was a within subject pseudo random design so that all rats received all treatments over several weeks. On test days in experiments 1 and 2 the rats were dosed with vehicle, Compound 1, haloperidol or clozapine or a combination of Compound 1/haloperidol or Compound 1/clozapine. On test days in experiments 3 and 4 the rats were dosed with vehicle, Compound 2, haloperidol or clozapine or a combination of Compound 2/haloperidol or Compound 2/clozapine. Conditioned avoidance testing commenced 30 minutes after treatment and the rats received 50 trials and the number of avoidance, escape and no response trials was recorded.

stereotypy = test: Apomorphine-induced stereotypy scored in the climbing test; assay type: in vivo, mice
Protocol: as §1

[4] = sc, 0.5 h, compound alone, mice, apomorphine 1 mg/kg s.c. 30 min after dosing
[5] = administered individually, 0.54 mg/kg i.p., 30 min pretreatment

## c1cc2c3c(c1)[C@H]1CCC[C@H]1N3CCNC2 [Compound 1]
[1]; Compound 1 5.4 & 17 mg/kg co-administered with clozapine 3 & 5.4 mg/kg
  block of apomorphine-induced climbing: greater block
[1]; Compound 1 5.4 & 17 mg/kg co-administered with haloperidol 0.17 & 0.3 mg/kg
  block of apomorphine-induced climbing: greater block
[1]; [4]
  ED50: 17 mg/kg
[1]; mice
  dose for increased efficacy with co-administration: 5.4 mg/kg
[1]; compound alone, mice, apomorphine 1 mg/kg s.c. 30 min after dosing
  ED50 for apomorphine block: 15.89 mg/kg
[2]; Compound 1 17 mg/kg with 0.17 and 0.3 mg/kg haloperidol, moderate increase, 30-120 min after dosing
  catalepsy, percent of maximum catalepsy (60 sec on bar): up to 30%
[2]
  dose for increased EPS liability with co-administration: ≥ 17 mg/kg
[2]; lower doses of Compound 1 (1.7, 5.4 mg/kg) with 0.17 and 0.3 mg/kg haloperidol
  potentiation of haloperidol-induced catalepsy: failed to potentiate catalepsy
[3]; Compound 1 0.54 mg/kg co-administered with clozapine 5.4 mg/kg, i.p.
  decrease in avoidance responding: > 70%
[3]; Compound 1 0.54 mg/kg co-administered with clozapine 5.4 mg/kg
  effect on number of no response trials: no adverse effects
[3]; Compound 1 0.54 mg/kg co-administered with haloperidol 0.54 mg/kg, i.p.
  decrease in avoidance responding: > 70%
[3]; Compound 1 0.54 mg/kg co-administered with haloperidol 0.54 mg/kg
  effect on number of no response trials: no adverse effects
[3]; [5]
  decrease in avoidance responding: ~10%
stereotypy; 0.3 mg/kg haloperidol with all doses of Compound 1 (1.7, 5.4, 17 mg/kg)
  stereotypy relative to 0.3 haloperidol alone: decreased stereotypy
stereotypy; 17 mg/kg Compound 1 and 0.17 mg/kg haloperidol combined treatment group
  decrease in stereotypy: < 10%
stereotypy; 17 mg/kg Compound 1 and 5.4 mg/kg clozapine combined treatment
  decrease in stereotypy: ~13%

## c1cc2c3c(c1)[C@H]1CCC[C@H]1CN3CCNC2 [Compound 2]
[1]; Compound 2 3, 10 & 30 mg/kg co-administered with clozapine 3 & 5.4 mg/kg
  block of apomorphine-induced climbing: greater block
[1]; Compound 2 3, 10 & 30 mg/kg co-administered with haloperidol 0.1 & 0.17 mg/kg
  block of apomorphine-induced climbing: greater block
[1]; co-administered with 0.1 mg/kg of haloperidol, mice
  ED50: 2.4 mg/kg
[1]; co-administered with 0.17 mg/kg of haloperidol, mice
  ED50: 4.1 mg/kg
[1]; compound alone, Experiment 4, mice
  ED50: 27.1 mg/kg
[1]; [4]
  ED50: 27.1 mg/kg
[1]; mice
  dose for increased efficacy with co-administration: 3 mg/kg
[2]; Compound 2 10 mg/kg with haloperidol 0.1 and 0.17 mg/kg
  potentiation of haloperidol-induced catalepsy: failed to potentiate
[2]
  dose for increased EPS liability with co-administration: > 10 mg/kg
[3]; Compound 2 1 mg/kg co-administered with clozapine 5.4 mg/kg, i.p.
  decrease in avoidance responding: > 60%
[3]; Compound 2 1 mg/kg co-administered with clozapine 5.4 mg/kg
  effect on number of no response trials: no adverse effects
[3]; Compound 2 1 mg/kg co-administered with haloperidol 0.54 mg/kg, i.p.
  decrease in avoidance responding: > 50%
[3]; Compound 2 1 mg/kg co-administered with haloperidol 0.54 mg/kg
  effect on number of no response trials: no adverse effects
stereotypy; 30 mg/kg Compound 2 and 0.17 mg/kg haloperidol combined treatment relative to haloperidol alone
  decrease in stereotypy: ~30%
stereotypy; 30 mg/kg Compound 2 and 5.4 mg/kg clozapine combined treatment
  decrease in stereotypy: ~20%

## CN1CCN(C2=Nc3cc(Cl)ccc3Nc3ccccc32)CC1 [clozapine, 8-chloro-11-(4-methyl-1-piperazinyl)-5H-dibenzo[b,e]-[1,4]-diazepine, reference compound]
[3]; administered individually, 5.4 mg/kg i.p., 30 min pretreatment
  decrease in avoidance responding: ~10%

## O=C(CCCN1CCC(O)(c2ccc(Cl)cc2)CC1)c1ccc(F)cc1 [haloperidol, 4-[4-(4-chlorophenyl)-4-hydroxy-1-piperidinyl]-1-(4-fluoro-phenyl)-1-butanone, reference compound]
[3]; [5]
  decrease in avoidance responding: ~10%
